Assay results taken from patent US20150133493A1, “COUMARIN-BASED COMPOUNDS FOR THE TREATMENT OF ALZHEIMER'S DISEASE AND CANCER” (Sloan-Kettering Institute for Cancer Research, priority 2008, published 2015).
Entries after “also recorded” stand apart in the source; their conditions may differ.

What was measured:
γ-secretase [1] = target: T1, γ-secretase (Homo sapiens, UniProt P49768); experiment: In vitro γ-secretase activity assay, Aβ40 production (ECL); assay type: biochemical; conditions: for IC50: in vitro inhibition of γ-secretase activity that generates Aβ40, 2.5 hr at 37° C., ECL detection; for Aβ40/Aβ42 ratio: ratio of IC50 for Aβ40 to IC50 for Aβ42
T1 construct: endogenous in cells
Protocol: (§1) FIG. 2. In vitro characterization of coumarin-dimer allosteric GSIs against various γ-secretase cleavage products. The potency of 7 unique coumarin-based γ-secretase inhibitors were evaluated for efficacy against γ-secretase-mediated production of Aβ40, Aβ42, Aβ38, and Notch. Additionally, the pan-GSI Compound E was also examined in these assays. The IC50 values were calculated from the dose response curves using a non-linear regression analysis in Prism software. IC50 values are presented with standard deviation (n=3 for each data point). The three β-amyloid-detection in vitro assays were modified from our previously reported assay (21) using a biotinylated substrate that eliminated the requirement of anti-β-amyloid biotinylated antibody. Ruthenylated antibodies that detected the -40, -42, or -38 cleavage site were incorporated to detect proteolysis indicative of γ-secretase activity. In vitro Notch assay utilized a recombinant transmembrane portion of the Notch peptide and anti-Notch1 SM320 antibody in conjunction with ruthenylated anti-rabbit secondary antibodies. Electrochemiluminescence was quantified on an Analyzer (BioVeris). The selectivity ratio for Aβ42 inhibition over Aβ40 and Notch are indicated in the two far right columns.
The assay protocol employed was a modified version of that described in Li et al., 2000, Proc. Nat'l Acad. Sci. USA 97:6183-643, incorporated herein by reference. Briefly, recombinant peptide substrate was incubated with γ-secretase (40 μg/ml) in the presence or absence of test compound. The reaction mixture contained 0.25% CHAPSO, 0.1 μg/μl BSA, protease inhibitor, 50 mM PIPES, pH 7.0, 5 mM MgCl2, 5 mM CaCl2 and 150 mM KCl. The reaction was incubated for 2.5 hr at 37° C. and stopped by adding RIPA buffer (150 mM NaCl, 1.0% NP-40, 0.5% sodium deoxycholate, 0.1% SDS, 50 mM Tris HCl, pH 8.0). The products were detected with various antibody combinations using electrochemiluminescence (ECL) technology as previously described in Li et al., 2000, Proc. Nat'l Acad. Sci. USA 97:6183-643; Lai et al., 2003, J. Biol. Chem. 278: 22475-22481; and Yin et al., 2007, J. Biol. Chem. 282:23639-23644. The amount of product was determined using synthetic peptide or recombinant standards.
(§2) Cell membranes and solubilized γ-secretase were prepared as described previously (36). The in vitro and cell γ-secretase assays detecting either Aβ38, Aβ40, or Aβ42 cleavage were performed similar as previously described (21, 36). Cleaved product was detected using ruthenylated antibodies that recognize specific APP cleavage sites (Aβ31-38*, G2-10*, or G2-11* antibody for Aβ38, Aβ40, or Aβ42 respectively). The Km and Vmax in the presence and absence of γ-secretase inhibitors were analyzed by non-linear curve fit using the software SigmaPlot 8.0 with the Michaelis-Menten equation (v=Vm [S]/(Km+[S]; v: initial rate; Vm: maximum velocity; Km: the Michaelis-Menten constant, S: substrate).

γ-secretase [2] = target: T1, γ-secretase; experiment: In vitro γ-secretase activity assay, Aβ42 production (ECL); assay type: biochemical; conditions: in vitro inhibition of γ-secretase activity that generates Aβ42; 2.5 hr at 37° C., ECL detection
Protocol: as §1, with “The potency of 7 unique coumarin-based γ-secretase inhibitors were evaluated for efficacy against γ-secretase-mediated production of Aβ40, Aβ42, Aβ38, and Notch. Additionally, the pan-GSI Compound E was also examined in these assays.” left out, “IC50 values are presented with standard deviation (n=3 for each data point).” left out, “(BioVeris).” for “(BioVeris). The selectivity ratio for Aβ42 inhibition over Aβ40 and Notch are indicated in the two far right columns.”
Briefly, recombinant peptide substrate was incubated with γ-secretase (40 μg/ml) in the presence or absence of test compound. […] The reaction was incubated for 2.5 hr at 37° C. and stopped by adding RIPA buffer (150 mM NaCl, 1.0% NP-40, 0.5% sodium deoxycholate, 0.1% SDS, 50 mM Tris HCl, pH 8.0). […] The amount of product was determined using synthetic peptide or recombinant standards.
as §2

[3] = system: N2a mouse neuroblastoma cells that stably express Swedish-mutated APP; experiment: Cell-based assay of secreted Aβ42, Aβ40, Aβ38 in APPsw-N2A cells; conditions: 24 hrs, in words, CS-1 up to 30 μM
Protocol: FIG. 3. Cellular evaluation of the coumarin-dimer CS-1 and its selective inhibition of Aβ42. Compounds were incubated with the APPsw-N2A mouse neuroblastoma cells for 24 hours and media were analyzed by biotinylated 4G8 and ruthenylated antibodies specific for each respective cleavage product. […] (d) Immunoprecipitation mass spectrometry analysis of CS-1 effect on secreted β-amyloid species. Aβ peptides were immunoprecipitated using 4G8 antibody and isolated with Protein G+/A agarose beads. Samples were analyzed by MALDI-MS. Samples shown are representative and each data point was performed in triplicate. (e) Cell-based Notch cleavage assay. HEK-293 cells were transfected with ΔE Notch construct and then Compound E and CS-1 were evaluated for their ability to inhibit γ-secretase-mediated Notch intracellular domain production. […] Western blot is representative and was performed in triplicate. (f) Effect of CS-1 on AICD production. N2A APPsw cell membrane was prepared and incubated with the indicated concentrations of CS-1 at 37° C. for 2 hours. The generated AICD and APP-CTFs were detected by Western Blotting using APPc antibody. Western blot is representative and was performed in triplicate.
We next set out to determine if the selective inhibition of Aβ42 was maintained in a cell-based system for APP processing. First, we compared our lead compound CS-1 (FIG. 3a) to Compound E (FIG. 3b) and the GSM compound indomethacin (FIG. 3c). N2a mouse neuroblastoma cells that stably express Swedish-mutated APP substrate were treated with the indicated compounds for 24 hrs at 37° C. Following 24 hr incubation period, the medium was collected from the cells and assayed for secreted Aβ42, Aβ40, and Aβ38. […] The result for indomethacin mirrored those findings by Kukar et al. whereby a different cell-based system was utilized (17), further validating our assay system for analysis of these Aβ species. […] This may reflect subtle variations between the cellular and in vitro conformations of γ-secretase. Nevertheless, the cell-based studies confirmed that CS-1 maintains a preference for inhibition of the γ-secretase mediated production of Aβ42 over Aβ40 or Aβ38, which is distinct to previously reported GSMs (17) and inhibitors (14-15, 18).
as §2

Row | Compound | IC50 (γ-secretase [1]) [µM] | Aβ40/Aβ42 ratio (γ-secretase [1]) | IC50 (γ-secretase [2]) [µM] | effect on secreted Aβ38 production [3] | effect on secreted Aβ40 production [3] | effect on secreted Aβ42 production [3]
1 | O=c1oc2ccccc2c(O)c1C(/C=C/c1cc(F)c(F)c(F)c1)c1c(O)c2ccccc2oc1=O [(trans)-1] | 3.7 | 1.3 | 2.9 | – | – | –
2 | COc1ccc(/C=C/C(c2c(O)c3ccccc3oc2=O)c2c(O)c3ccccc3oc2=O)cc1 [(trans)-258] | 21.5 | 3.8 | 5.6 | – | – | –
3 | O=c1[nH]c2ccccc2c(O)c1C(c1cc(F)c(F)c(F)c1)c1c(O)c2ccccc2[nH]c1=O [Compound 45] | 8 | 2.4 | 3.4 | – | – | –
4 | O=c1sc2ccccc2c(O)c1C(c1cc(F)c(F)c(F)c1)c1c(O)c2ccccc2sc1=O [Compound 53] | 1.3 | 2.6 | 0.5 | – | – | –
5 | O=c1oc2ccccc2c(O)c1C(c1cc(F)cc(F)c1)c1c(O)c2ccccc2oc1=O [Compound 61] | 0.34 | 2.0 | 0.17 | – | – | –
6 | COc1ccc(C(c2c(O)c3ccccc3oc2=O)c2c(O)c3ccccc3oc2=O)cc1F [Compound 77] | 6.2 | 2.2 | 2.8 | – | – | –
7 | Cc1ccc2oc(=O)c(C(c3cc(F)c(F)c(F)c3)c3c(O)c4cc(C)ccc4oc3=O)c(O)c2c1 [Compound 197] | 3.26 | 2.1 | 1.59 | – | – | –
8 | O=c1oc2ccccc2c(O)c1C(Cc1ccc(F)cc1)c1c(O)c2ccccc2oc1=O [Compound 199] | 4 | 4.4 | 0.9 | – | – | –
9 | O=c1oc2ccc(F)cc2c(O)c1C(c1cc(F)c(F)c(F)c1)c1c(O)c2cc(F)ccc2oc1=O [Compound 203] | 2.6 | 2.9 | 0.9 | – | – | –
10 | O=c1oc2ccccc2c(O)c1C(c1cccc(C(F)(F)F)c1)c1c(O)c2ccccc2oc1=O [Compound 209] | 2 | 2.5 | 0.8 | – | – | –
11 | CCc1ccc(C(c2c(O)c3ccccc3oc2=O)c2c(O)c3ccccc3oc2=O)cc1 [Compound 210] | 4.6 | 2.4 | 1.9 | – | – | –
12 | C/C=C/C=C/C(c1c(O)c2ccccc2oc1=O)c1c(O)c2ccccc2oc1=O [Compound 257] | 9.9 | 1.4 | 7.3 | – | – | –
13 | O=c1oc2ccccc2c(O)c1C1c2cc(F)c(F)cc2Oc2c1c(=O)oc1ccccc21 (stereo not shown) [Compound 369] | 2.6 | 2.9 | 0.9 | – | – | –
14 | Nc1ccc2c(c1)Oc1c(c(=O)oc3ccccc13)C2c1c(O)c2ccccc2oc1=O (stereo not shown) [Compound 372] | 19.4 | 2.0 | 9.9 | – | – | –
15 | O=c1oc2ccccc2c(O)c1C1c2c(F)c(F)c(F)c(F)c2Oc2c1c(=O)oc1ccccc21 (stereo not shown) [Compound 423] | 3.4 | 2.6 | 1.3 | – | – | –
16 | O=C(Cc1cc(F)cc(F)c1)c1c(O)c2ccccc2oc1=O [Compound 560] | 89.9 | 3.3 | 26.9 | – | – | –
17 | O=c1oc2ccccc2c(O)c1C(c1ccc(C(F)(F)F)cc1)c1c(O)c2ccccc2oc1=O [Compound 728] | 7 | 4.4 | 1.6 | – | – | –
18 | CC(=O)Nc1ccc(C(c2c(O)c3ccccc3oc2=O)c2c(O)c3ccccc3oc2=O)cc1 [Compound 732] | 63.9 | 4.0 | 15.9 | – | – | –
19 | O=c1oc2ccccc2c(O)c1C(c1c(O)c2ccccc2oc1=O)C1CCCCC1 [Compound 733] | 4.2 | 3.5 | 1.2 | – | – | –
20 | O=c1oc2ccccc2c(O)c1C(c1ccccc1F)c1c(O)c2ccccc2oc1=O [Compound 734] | 1.95 | 0.3 | 7.2 | – | – | –
21 | Oc1ccnc(O)c1C(c1cc(F)c(F)c(F)c1)c1c(O)ccnc1O [Compound 738] | > 100 | – | > 100 | – | – | –
22 | O=c1oc2ccccc2c(O)c1Cc1cc(F)c(F)c(F)c1 [compound 476] | > 100 | – | > 100 | – | – | –
23 | O=C(CC(c1cc(F)c(F)c(F)c1)c1c(O)c2ccccc2oc1=O)NCc1cc(F)cc(F)c1 (stereo not shown) [compound 512] | 1.86 | 1.5 | 1.24 | – | – | –
24 | O=C(Cc1cc(F)cc(F)c1)NCCNC(=O)CC(c1cc(F)c(F)c(F)c1)c1c(O)c2ccccc2oc1=O (stereo not shown) [compound 520] | 9.23 | 2.0 | 4.53 | – | – | –
25 | Cc1coc(=O)c(C(c2cc(F)c(F)c(F)c2)c2c(O)c(C)coc2=O)c1O [compound 668] | 4.2 | 2.5 | 1.7 | – | – | –
26 | O=c1oc2ccccc2c(O)c1C(c1ccc(Cl)cc1)c1c(O)c2ccccc2oc1=O [compound 729] | 1.7 | 1.4 | 1.2 | – | – | –
27 | O=c1oc2ccccc2c(O)c1C(c1ccc(Br)cc1)c1c(O)c2ccccc2oc1=O [compound 730] | 1.7 | 1.4 | 1.2 | – | – | –
28 | O=c1oc2ccccc2c(O)c1C(c1ccc(I)cc1)c1c(O)c2ccccc2oc1=O [compound 731] | 6.1 | 4.1 | 1.5 | – | – | –
29 | COc1ccc2c(c1)c(CC(=O)O)c(C)n2C(=O)c1ccc(Cl)cc1 [indomethacin] | – | – | – | potently increases; also recorded: significantly enhanced | little effect; also recorded: no effect | reduces; also recorded: abrogated
